From publication PMC3185947 (British Journal of Cancer, 2011)
Where two headings read alike, the source gives them in different places. Marks after values point to notes of the source that are not given here.

Settings: in vivo; for OSI-420 AUC0–24 / OSI-420 Cmax / OSI-420 Tmax, median (range) / OSI-420 Tmax: human
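Also: pharmacokinetic parameters derived by non-compartmental analysis.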

For C#Cc1cccc(Nc2ncnc3cc(OCCOC)c(OCCO)cc23)c1 [OSI-420], the “OSI-420 AUC0–24” value (150 mg) was 2.56 (0.599–10.5) ^a μg h ml^−1, the “OSI-420 Cmax” value (150 mg) was 0.165 (0.0452–0.568) μg ml^−1 and the “OSI-420 Tmax, median (range)” value (150 mg) was 4.0 (1.05–23.9) h. The “OSI-420 AUC0–24” value (200 mg) was 4.55 (0.996–19.2) μg h ml^−1, the “OSI-420 Cmax” value (200 mg) was 0.278 (0.0617–0.864) μg ml^−1 and the “OSI-420 Tmax, median (range)” value (200 mg) was 2.0 (1.00–24.0) h. For the same compound, the “OSI-420 AUC0–24” value (225 mg) was 4.10 (1.57–19.7) μg h ml^−1, the “OSI-420 Cmax” value (225 mg) was 0.260 (0.116–0.908) μg ml^−1 and the “OSI-420 Tmax, median (range)” value (225 mg) was 2.0 (0.930–8.00) h. For the same compound, the “OSI-420 AUC0–24” value (250 mg) was 3.32 (1.52–16.4) μg h ml^−1, the “OSI-420 Cmax” value (250 mg) was 0.219 (0.119–0.760) μg ml^−1 and the “OSI-420 Tmax, median (range)” value (250 mg) was 4.0 (1.00–8.00) h. The “OSI-420 AUC0–24” value (275 mg) was 3.62 (1.51–15.7) μg h ml^−1, the “OSI-420 Cmax” value (275 mg) was 0.223 (0.107–0.929) μg ml^−1 and the “OSI-420 Tmax, median (range)” value (275 mg) was 2.0 (1.00–8.02) h. The “OSI-420 AUC0–24” value (300 mg) was 4.23 (1.38–6.32) μg h ml^−1, the “OSI-420 Cmax” value (300 mg) was 0.273 (0.133–0.346) μg ml^−1 and the “OSI-420 Tmax, median (range)” value (300 mg) was 2.0 (1.00–2.03) h. The “OSI-420 AUC0–24” value (325 mg) was 4.18 (2.26, 6.09) μg h ml^−1, the “OSI-420 Cmax” value (325 mg) was 0.344 (0.222, 0.426) μg ml^−1 and the “OSI-420 Tmax, median (range)” value (325 mg) was 1.5 (2.00, 1.00) h. For the same compound, the “OSI-420 AUC0–24” value (350 mg) was 2.33 (2.94, 1.72) μg h ml^−1, the “OSI-420 Cmax” value (350 mg) was 0.169 (0.243, 0.0945) μg ml^−1 and the “OSI-420 Tmax, median (range)” value (350 mg) was 2.0 (2.00, 2.03) h. The “OSI-420 AUC0–24” value (375 mg) was 3.80 µg·h/mL, the “OSI-420 Cmax” value (375 mg) was 0.253 µg/mL and the “OSI-420 Tmax” value (375 mg) was 1.0 h. The “OSI-420 AUC0–24” value (400 mg) was 6.84 µg·h/mL, the “OSI-420 Cmax” value (400 mg) was 0.454 µg/mL and the “OSI-420 Tmax” value (400 mg) was 2.0 h. For the same compound, the “OSI-420 AUC0–24” value (425 mg) was 5.02 µg·h/mL, the “OSI-420 Cmax” value (425 mg) was 0.293 µg/mL and the “OSI-420 Tmax” value (425 mg) was 2.0 h. For the same compound, the “OSI-420 AUC0–24” value (450 mg) was 8.78 µg·h/mL, the “OSI-420 Cmax” value (450 mg) was 0.489 µg/mL and the “OSI-420 Tmax” value (450 mg) was 4.0 h. For the same compound, the “Interpatient and intrapatient variability of PK” value was “High”.
